Results on 1 compound are retold here after patent publication US12281329B2, “Compositions and methods for immune cell modulation in adoptive immunotherapies” (Fate Therapeutics, Inc., priority 2016, dated 2025).

One assay has as its system CD20+ Raji cells. The assay can be described thus: NK cell cytotoxicity assay, Raji target cells. Particulars: 4 hours; NK cells overnight IL-15 only or 7 days IL15 + GSK3i. Type of assay: cell-based, human. As to the method: (§1) NK Cell Cytotoxicity Assay: Cytotoxicity was determined using a flow cytometry based method based on a previously published method (Kim, et al. J Immunol Methods. 2007 Aug. 31; 325(1-2): 51-66). NK cells were co-cultured with e450-proliferation dye-labelled targets for 4 hours. CellEvent™ Caspase-3/7 Green Flow Cytometry Assay Kit (Lifer Technologies) was used to assay for cell death among target cells, and samples were read on a BD LSRFortessa cytometer. Killing of SKOV-3 targets was quantified using the Incucyte Zoom instrument. SKOV-3 cells were transiently transduced with NucLight-Red BacMam reagent (Essen Biosciences) and co-cultured with the indicated NK cell populations for 74 hours, with images taken on two hour intervals. Caspase 3/7 activity was monitored to indicate target cells undergoing apoptosis using the CellEvent™ Caspase-3/7 Green Detection Reagent. The number of target cells was normalized to SKOV-3 cells cultured alone, and targets undergoing apoptosis were quantified based on caspase 3/7 activity.
The ability of GSK3 inhibition to enhance cytotoxicity of NK cells isolated directly from donors was assessed using in vitro killing assays. […] After the target cells were incubated with the differently treated NK cells for 4 hours, the respective percentage of specific killing (target cell lysis) was calculated. […]

The next assay relates to K562 cells. The assay can be described thus: NK cell cytotoxicity assay, K562 target cells. Particulars: 4 hours; NK cells overnight 10 ng/mL IL-15 only or 7 day IL-15 + 5 μM CHIR99021. Type of assay: cell-based. The method, then: as §1
The ability of GSK3 inhibition to enhance cytotoxicity of NK cells isolated directly from donors was assessed using in vitro killing assays. […] depleted PBMC population was treated overnight with 10 ng/mL IL-15 only (primed), or a 7 day culture combination of 10 ng/mL IL-15 and 5 μM CHIR99021. The target cells for the killing assays included K562 cells, CD20+ Raji cells, HER2+ SKOV3 cells and HER2+A549 cells. The E:T (Effector:Target) ratio applied to each assay ranged from 0.1, 0.5, 1, 5 to 10. After the target cells were incubated with the differently treated NK cells for 4 hours, the respective percentage of specific killing (target cell lysis) was calculated. […] Raji cells are less prone to NK mediated cytotoxicity.
The ability of STING agonist to enhance cytotoxicity of GSK3i multiday modulated NK cells was assessed using in vitro killing assays. […]

The test system of a further assay is NK cells. The assay can be described thus: Sorted NK cell populations (CD57/NKG2C) cultured with CHIR99021: maturation. Format: cell-based, human. Particulars: 7 day. As to the method:
NK Cell Sorting: CD3/CD19 depleted PBMC were labelled with 10 uM e450 proliferation dye (eBioscience) and stained with FITC-conjugated anti-CD57, PE-Conjugated anti-NKG2C, APC-conjugated anti-CD56, and Percp-Cy5.5-conjugated anti-CD3 antibodies (BD Biosciences and R&D Systems). Four populations of CD3-CD56+NK cells were sorted according to the expression of CD57 and NKG2C; CD57+NKG2C−, CD57+NKG2C+, CD57-NKG2C+, and CD57-NKG2C−. Sorted NK cell populations were cultured at a 2:1 ratio of NK:monocytes in BO media with 10 ng/ml IL-15 and CHIR99021 or vehicle control. Stained but unsorted cells were cultured in parallel as a control.
CD3/CD19 depleted PBMC were labelled with e450 proliferation dye, and CD56+CD3− NK cells were sorted in bulk or were sorted into 4 populations based on expression of CD57 and NKG2C expression (FIG. 5A). Total, unfractionated, NK cells were cultured alongside CD57+NKG2C− (Q1), CD57+NKG2C+(Q2), CD57−NKG2C+(Q3), CD57−NKG2C− (Q4) sorted NK cells with either (1) cytokine (10 ng/ml IL15) and 5 μM CHIR99021, or (2) cytokine only with vehicle control (for example, DMSO only) (FIG. 5B) with autologous CD14+ monocytes in a 1:1 ratio of NK cells:monocytes. After the 7 day culture period, cultures of each sorted population were stained for flow cytometry and analyzed for proliferation and cell surface marker expression. […]

The subject of a further assay is HER2+A549 cells. The assay can be described thus: NK cell Herceptin ADCC killing of A549 cells. Type of assay: cell-based, human. As to conditions: NK cells cultured with GSK3i for 7 days.

`Cc1c[nH]c(-c2cnc(NCCNc3ccc(C#N)cn3)nc2-c2ccc(Cl)cc2Cl)n1` [CHIR99021]: the “E:T50, Raji cells” value in the assay with CD20+ Raji cells is reported as 1-2. Moreover, the “E:T50 (E:T ratio when there is 50% of target cell lysis), K562 killing assay” value in the assay on K562 cells is reported as “about 1”. Further, the “expression of CD57 in Q3 and Q4 sorted cells (CD57− before culturing)” value in the assay with NK cells (10 ng/ml IL15 + 5 μM CHIR99021) was “upregulated”. For the same compound, the “CD57 expression in the total NK cells” value in the assay with NK cells (10 ng/ml IL15 + 5 μM CHIR99021, unsorted) is recorded as “significant increase”. Moreover, in the assay with HER2+A549 cells, the “ADCC-mediated killing of A549 cells (rate and efficiency)” value is reported as “enhanced”.
